How the values were obtained:
JEKO-1 cells = test: Ibrutinib sensitivity by reduction of bioluminescence (BLI); type: cell-based, human; details: 0.1 nM to 10 μM
RL = test: MTT assay, ibrutinib inhibition of proliferation; type: cell-based; details: Homo sapiens
Mino = test: MTT assay, ibrutinib inhibition of proliferation; type: cell-based; details: Homo sapiens
MCL-RL cells = test: MCL-RL xenograft model in NSG mice; type: in vivo
Method: NOD-SCID-γ chain−/− (NSG) mice originally obtained from Jackson Laboratories were purchased from the Stem Cell and Xenograft Core of the University of Pennsylvania. All experiments were performed on protocols approved by the Institutional Animal Care and Use Committee (IACUC). Schematics of the utilized xenograft models are discussed herein. Cells (MCL cell lines or T cells) were injected in 200 ul of PBS at the indicated concentration into the tail veins of mice. Bioluminescent imaging was performed using a Xenogen IVIS-200 Spectrum camera and analyzed with LivingImage software v. 4.3.1 (Caliper LifeSciencies). Animals were euthanized at the end of the experiment or when they met pre-specified endpoints according to the IACUC protocols.
Schematics such as those shown in FIGS. 20, 55, and 5A were used in this example. […] 1×10^6 cells from RL (MCL-3), JEKO-1 (MCL-4), and NALM6 (MCL-5) cell lines are injected in NSG mice (20 mice for each experiment). […] At Day 7, Day 14, Day 21, and Day 28, the bioluminescence is imaged to monitor tumor size. […] Survival of the mice is also monitored. […] 2×10^6 MCL-RL cells are injected into NSG mice. […] At days 14, 21, 28, and 35 (after injection of MCL-RL cells), the bioluminescence is imaged to monitor tumor size.
Mean bioluminescence, representing tumor growth, was assessed at various timepoints.

Jeko-1 = test: MTT assay, ibrutinib inhibition of proliferation; type: cell-based; details: Homo sapiens
CART19 T cells = details: 0.1, 0.5, 1 and 5 μM ibrutinib
MCL = details: cited from earlier work
Nalm/6 cells = test: Nalm/6 tumor model in NSG mice; type: in vivo
Method: CART19 function was assessed in an in vivo mouse model. Nalm/6 cells (human acute lymphoblastic leukemia cell line) were implanted into NSG mice, and the mice were monitored daily for at least 50 days. […] CART19 was administered on day 7 or day 9, or mice were left untreated (control). […] For example, the cells were stained with anti-human CD19 antibody to determine the percent of human CD19+(Nalm/6) cells in the blood of the tumor-bearing NSG mice.

PBMCs = test: CAR19 lentiviral transduction of ibrutinib-treated normal donor PBMCs; type: cell-based, human; details: PBMCs incubated with 5 μM ibrutinib for 30 minutes
Method: Normal donor PBMCs were obtained using apheresis as described herein, for example in Example 6. […] The cells were then transduced with lentiviral constructs containing CAR19 to generate CART19 T cells using the methods described herein, for example, in Example 4. The number of CART19 T cells generated from ibrutinib-treated PBMCs FACs analysis was performed to determine the number of CART19 T cells generated from ibrutinib-treated PBMCs compared to untreated PBMCs.

RL cells = test: Ibrutinib sensitivity by reduction of bioluminescence (BLI); type: cell-based, human; details: 0.1 nM to 10 μM
[1] = mice; cited from earlier work
[2] = test system: luciferase-expressing mantle cell line (RL luc); test: Lymphoma xenograft model, tumor burden by mean bioluminescence; type: in vivo, NSG mice; details: 200 ng/mouse i.p. three times weekly from Day 85, mice with suboptimal response to CART19
Excerpt: Tumor size was monitored by measuring the mean bioluminescence of the engrafted tumors over more than 80 days. […] When comparing the tumor burden of mice that received IL-7 treatment to control, before and after IL-7 treatment, tumor reduction in tumor burden was only seen in the mice that had received IL-7 treatment (FIG. 49C).

C=CC(=O)N1CCC[C@@H](n2nc(-c3ccc(Oc4ccccc4)cc3)c3c(N)ncnc32)C1 [ibrutinib, 1-[(3R)-3-[4-Amino-3-(4-phenoxyphenyl)-1H-pyrazolo[3,4-d]pyrimidin-1-yl]piperidin-1-yl]prop-2-en-1-one]
sensitivity to ibrutinib (reduction of bioluminescence) (JEKO-1 cells): resistant
IC50 (RL): 0.01 µM
IC50 (Mino): ≤ 10 µM
median overall survival (MCL-RL cells; 25 mg/kg/day): 81 days
median overall survival (MCL-RL cells; 125 mg/kg/day): 100 days
tumor growth (mean bioluminescence) (MCL-RL cells; ibrutinib alone, 25 and 250 mg/kg/day): dose-related sensitivity
circulating and nodal/organ MCL cells (MCL-RL cells; one week after beginning ibrutinib alone): more circulating MCL cells and fewer nodal/organ MCL cells
tumor burden (bioluminescence) (MCL-RL cells; treatment from Day 7, CART19 2×10^6 cells, ibrutinib 125 mg/kg/day): modestly delayed tumor growth at early time points
IC50 (Jeko-1): ≤ 10 µM
CD3/CD28-stimulated CART19 cell proliferation (CART19 T cells): did not affect CART19 cell proliferation
patients who do not respond (MCL): about 30%
Nalm/6 cells circulating in peripheral blood (Nalm/6 cells; daily oral gavage from day 7, CART19 on day 7 or 9): does not impair CART19 function in clearing Nalm/6 cells
survival after injection of Nalm/6 cells (Nalm/6 cells; ibrutinib without CART19 T cells): ≤ 30 days
transduced PBMCs expressing CAR19 (PBMCs): 15%
sensitivity to ibrutinib (reduction of bioluminescence) (RL cells): sensitive

CO[C@H]1C[C@@H]2CC[C@@H](C)[C@@](O)(O2)C(=O)C(=O)N2CCCC[C@H]2C(=O)O[C@H]([C@H](C)C[C@@H]2CC[C@@H](O)[C@H](OC)C2)CC(=O)[C@H](C)/C=C(\C)[C@@H](O)[C@@H](OC)C(=O)[C@H](C)C[C@H](C)/C=C/C=C/C=C/1C [rapamycin]
lifespan [1]: extended lifespan

B1: IL-7: exogenous recombinant human IL-7 (protein, UniProt P13232 26-177, looked up)
Interleukin-7: DCDIEGKDGKQYESVLMVSIDQLLDSMKEIGSNCLNNEFNFFKRHICDANKEGMFLFRAARKLRQFLKMNSTGDFDLHLLKVSEGTTILLNCTGQVKGRKPAALGEAQPTKSLEENKSLKEQKKLNDLCFLKRLLQEIKTCWNKILMGTKEH
reduction in tumor burden [2]: 1-3 log
